The source of these data is US20110136762A1, “FUNGICIDAL PYRIDAZINES” (E.I. Du Pont de Nemours and Company, priority 2008, published 2011).

Marks after values point to notes of the source that are not given here.

Assay type in all cases: in vivo
One assay deals with Erysiphe graminis. Kind of assay: Test A: wheat powdery mildew, preventive spray on wheat seedlings, visual disease rating. Particulars: 100 = 100% disease control, 0 = no disease control relative to controls. An excerpt: General protocol for preparing test suspensions for Tests A-F: […] The resulting test suspensions were then used in Tests A-F. The test suspensions were sprayed to the point of run-off on the test plants. All results are for 200 ppm (equivalent to a rate of 500 g/ha) except where followed by “*” which indicates 40 ppm. The test suspension was sprayed to the point of run-off on wheat seedlings. The following day the seedlings were inoculated with a spore dust of Erysiphe graminis, (the causal agent of wheat powdery mildew) and incubated in a growth chamber at 20° C. for 8 days, after which time visual disease ratings were made. […] A dash (-) indicates no test results. All results are for 200 ppm except where followed by “*”, which indicates 40 ppm.

In assay [1] the test system is Puccinia recondita f. sp. tritici. In words: Test B: wheat leaf rust, preventive spray on wheat seedlings, visual disease rating. The following applies: 100 = 100% disease control, 0 = no disease control relative to controls. The source says: General protocol for preparing test suspensions for Tests A-F: […] The resulting test suspensions were then used in Tests A-F. The test suspensions were sprayed to the point of run-off on the test plants. All results are for 200 ppm (equivalent to a rate of 500 g/ha) except where followed by “*” which indicates 40 ppm. The test suspension was sprayed to the point of run-off on wheat seedlings. The following day the seedlings were inoculated with a spore suspension of Puccinia recondita f. sp. tritici (the causal agent of wheat leaf rust) and incubated in a saturated atmosphere at 20° C. for 24 h, and then moved to a growth chamber at 20° C. for 7 days, after which time visual disease ratings were made. […] A dash (-) indicates no test results. All results are for 200 ppm except where followed by “*”, which indicates 40 ppm.

The next assay has as its system Septoria tritici. In words: Test C: wheat leaf blotch, preventive spray on wheat seedlings, visual disease rating. Particulars: 100 = 100% disease control, 0 = no disease control relative to controls. The source says: General protocol for preparing test suspensions for Tests A-F: […] The resulting test suspensions were then used in Tests A-F. The test suspensions were sprayed to the point of run-off on the test plants. All results are for 200 ppm (equivalent to a rate of 500 g/ha) except where followed by “*” which indicates 40 ppm. The test suspension was sprayed to the point of run-off on wheat seedlings. The following day the seedlings were inoculated with a spore suspension of Septoria tritici (the causal agent of wheat leaf blotch) and incubated in saturated atmosphere at 20° C. for 48 h, and moved to a growth chamber at 20° C. for 19 additional days, after which time visual disease ratings were made. […] A dash (-) indicates no test results. All results are for 200 ppm except where followed by “*”, which indicates 40 ppm.

In another assay the test system is Septoria nodorum. Kind of assay: Test D: wheat glume blotch, preventive spray on wheat seedlings, visual disease rating. The following applies: 100 = 100% disease control, 0 = no disease control relative to controls; for pest or weed control at 200 ppm: Parastagonospora nodorum. The source says: General protocol for preparing test suspensions for Tests A-F: […] The resulting test suspensions were then used in Tests A-F. The test suspensions were sprayed to the point of run-off on the test plants. All results are for 200 ppm (equivalent to a rate of 500 g/ha) except where followed by “*” which indicates 40 ppm. The test suspension was sprayed to the point of run-off on wheat seedlings. The following day the seedlings were inoculated with a spore suspension of Septoria nodorum (the causal agent of wheat glume blotch) and incubated in a saturated atmosphere at 20° C. for 48 h, and then moved to a growth chamber at 20° C. for 7 days, after which time visual disease ratings were made. […] A dash (-) indicates no test results. All results are for 200 ppm except where followed by “*”, which indicates 40 ppm.

A further assay deals with Alternaria solani. Kind of assay: Test E: tomato early blight, preventive spray on tomato seedlings, visual disease rating. The following applies: 100 = 100% disease control, 0 = no disease control relative to controls; for pest or weed control at 200 ppm: Alternaria solani. The source says: General protocol for preparing test suspensions for Tests A-F: […] The resulting test suspensions were then used in Tests A-F. The test suspensions were sprayed to the point of run-off on the test plants. All results are for 200 ppm (equivalent to a rate of 500 g/ha) except where followed by “*” which indicates 40 ppm. The test suspension was sprayed to the point of run-off on tomato seedlings. […] A dash (-) indicates no test results. All results are for 200 ppm except where followed by “*”, which indicates 40 ppm.

The subject of a further assay is Botrytis cinerea. Kind of assay: Test F: tomato Botrytis, preventive spray on tomato seedlings, visual disease rating. Particulars: 100 = 100% disease control, 0 = no disease control relative to controls; for pest or weed control at 200 ppm: Botrytis cinerea. The source says:
General protocol for preparing test suspensions for Tests A-F: […] The resulting test suspensions were then used in Tests A-F. The test suspensions were sprayed to the point of run-off on the test plants. All results are for 200 ppm (equivalent to a rate of 500 g/ha) except where followed by “*” which indicates 40 ppm. The test suspension was sprayed to the point of run-off on tomato seedlings. The following day the seedlings were inoculated with a spore suspension of Botrytis cinerea (the causal agent of tomato Botrytis) and incubated in saturated atmosphere at 20° C. for 48 h, and then moved to a growth chamber at 24° C. for 3 days, after which time visual disease ratings were made. […] A dash (-) indicates no test results. All results are for 200 ppm except where followed by “*”, which indicates 40 ppm.

[2] abbreviates: Blumeria graminis, 192 h, 200 ppm.
Where [3] appears, read: Zymoseptoria tritici, 504 h, 200 ppm.

Regarding `COc1ccncc1-c1c(-c2ccccc2F)nnc(C)c1-c1c(F)cc(F)cc1F` [Compound 42], the “Test A rating (disease control, wheat powdery mildew)” value (shortened to “Test A rating”) in the assay with Erysiphe graminis (40 ppm (marked *)) is 78* %. The “Test B rating (disease control, wheat leaf rust)” value (from here on “Test B rating”) in assay [1] (40 ppm (marked *)) is recorded as 99* %. Also, the “Test C rating (disease control, wheat leaf blotch)” value (“Test C rating” below) in the assay with Septoria tritici (40 ppm (marked *)) is on record as 100* %. Further, the “Test D rating (disease control, wheat glume blotch)” value (“Test D rating” for short) in the assay with Septoria nodorum (40 ppm (marked *)) is 0* %. Moreover, the “Test E rating (disease control, tomato early blight)” value (shortened to “Test E rating”) in the assay with Alternaria solani (40 ppm (marked *)) was 41* %. In addition, the “Test F rating (disease control, tomato Botrytis)” value (“Test F rating” for short) with Botrytis cinerea (40 ppm (marked *)) was 100* %.

Turning to `COc1cc(OC)cc(-c2c(-c3ccccc3)nnc(C)c2-c2ccccc2)c1` [Compound 3], the “Test A rating” value in the assay with Erysiphe graminis (200 ppm) stood at 52%. In assay [1] (200 ppm), the “Test B rating” value came out at 86%. The “Test C rating” value in the assay with Septoria tritici (200 ppm) was 87%. Also, in the assay on Septoria nodorum (200 ppm), the “Test D rating” value is 0%. In the assay with Alternaria solani (200 ppm), the “Test E rating” value stood at 0%. Further, the “Test F rating” value in the assay with Botrytis cinerea (200 ppm) turned out to be 52%.

Regarding `COc1cc(OC)cc(-c2c(-c3ccccc3)nnc(C)c2-c2ccc(Cl)cc2)c1` [Compound 6], the “Test A rating” value in the assay with Erysiphe graminis (200 ppm) was 79%. The “Test B rating” value in assay [1] (200 ppm) is recorded as 97%. In addition, the “Test C rating” value in the assay with Septoria tritici (200 ppm) came to 97%. Besides, the “Test D rating” value in the assay on Septoria nodorum (200 ppm) turned out to be 0%. Besides, the “Test E rating” value in the assay with Alternaria solani (200 ppm) came out at 36%. Also, the “Test F rating” value in the assay with Botrytis cinerea (200 ppm) is 67%.

Consider `COc1cc(OC)cc(-c2c(-c3ccccc3F)nnc(C)c2-c2c(F)cccc2F)c1` [Compound 22], for which the “Test A rating” value in the assay with Erysiphe graminis (40 ppm (marked *)) was 99* %. In assay [1] (40 ppm (marked *)), the “Test B rating” value is listed as 100* %. For the same compound, the “Test C rating” value in the assay with Septoria tritici (40 ppm (marked *)) was 97* %. Besides, the “Test D rating” value with Septoria nodorum (40 ppm (marked *)) was 84* %. For the same compound, in the assay with Alternaria solani (40 ppm (marked *)), the “Test E rating” value is given as 100* %. Also, the “Test F rating” value with Botrytis cinerea (40 ppm (marked *)) is 95* %.

As for `CNCCCOc1cc(F)c(-c2c(C)nnc(-c3ccccc3F)c2-c2cc(OC)cc(OC)c2)c(F)c1` [Compound 30, 3-[4-[5-(3,5-dimethoxyphenyl)-6-(2-fluorophenyl)-3-methyl-4-pyridazinyl]-3,5-difluorophenoxy]-N-methyl-1-propanamine], the pest or weed control (usually the degree to which the test organism was suppressed or injured, in per cent) at 200 ppm in the assay on Erysiphe graminis (setting [2]) was determined as 89%; in assay [1] (192 h, 200 ppm) it was 100%; in the assay on Septoria tritici (setting [3]), 99%; in the assay on Septoria nodorum (200 ppm) it was 98%; with Alternaria solani (200 ppm), 98%; with Botrytis cinerea (200 ppm) it was 100%.

Consider `COc1cc(OC)cc(-c2c(-c3ccccc3F)nnc(C)c2-c2ccccc2)c1` [Compound 4], for which the “Test A rating” value with Erysiphe graminis (200 ppm) came to 82%. The “Test B rating” value in assay [1] (200 ppm) worked out at 96%. In addition, in the assay on Septoria tritici (200 ppm), the “Test C rating” value came to 84%. In the assay with Septoria nodorum (200 ppm), the “Test D rating” value came to 0%. Besides, the “Test E rating” value in the assay with Alternaria solani (200 ppm) is listed as 28%. In addition, the “Test F rating” value with Botrytis cinerea (200 ppm) is on record as 94%.

As to `COc1cc(OC)c(Cl)c(-c2c(-c3ccccc3F)nnc(Cl)c2-c2c(F)cc(F)cc2F)c1` [Compound 43], in the assay with Erysiphe graminis (40 ppm (marked *)), the “Test A rating” value was 99* %. Further, the “Test B rating” value in assay [1] (40 ppm (marked *)) was 100* %. Besides, the “Test C rating” value in the assay on Septoria tritici (40 ppm (marked *)) is 97* %. Further, in the assay with Septoria nodorum (40 ppm (marked *)), the “Test D rating” value is 100* %. Besides, the “Test E rating” value in the assay with Alternaria solani (40 ppm (marked *)) is given as 99* %. In addition, the “Test F rating” value with Botrytis cinerea (40 ppm (marked *)) is reported as 100* %.

As to `COc1cc(OC)cc(-c2c(-c3ccccc3)nnc(C)c2-c2ccc(F)cc2)c1` [Compound 1, 4-(3,5-dimethoxyphenyl)-5-(4-fluorophenyl)-6-methyl-3-phenylpyridazine], the pest or weed control at 200 ppm with Erysiphe graminis (setting [2]) came to 85%; in assay [1] (192 h, 200 ppm), 99%; with Septoria tritici (setting [3]) it was 100%; with Septoria nodorum (200 ppm), 0%; in the assay with Alternaria solani (200 ppm), 72%; in the assay on Botrytis cinerea (200 ppm), 98%.

As for `COc1ccncc1-c1c(-c2ccccc2F)nnc(Cl)c1-c1c(F)cc(F)cc1F` [Compound 40], the “Test A rating” value with Erysiphe graminis (40 ppm (marked *)) is listed as 73* %. In addition, in assay [1] (40 ppm (marked *)), the “Test B rating” value was 100* %. For the same compound, the “Test C rating” value in the assay with Septoria tritici (40 ppm (marked *)) is 100* %. Also, in the assay on Septoria nodorum (40 ppm (marked *)), the “Test D rating” value is reported as 60* %. Moreover, in the assay on Alternaria solani (40 ppm (marked *)), the “Test E rating” value is on record as 93* %. The “Test F rating” value with Botrytis cinerea (40 ppm (marked *)) is on record as 100* %.

For `COc1ccc(-c2c(C)nnc(-c3ccccc3)c2-c2cc(OC)cc(OC)c2)cc1` [Compound 7, 4-(3,5-dimethoxyphenyl)-5-(4-methoxyphenyl)-6-methyl-3-phenylpyridazine], the pest or weed control at 200 ppm was 95% in the assay with Erysiphe graminis (setting [2]); 100% in assay [1] (192 h, 200 ppm); 100% in the assay on Septoria tritici (setting [3]); 90% in the assay with Septoria nodorum (200 ppm); 96% in the assay with Alternaria solani (200 ppm); 97% in the assay with Botrytis cinerea (200 ppm).

For the compound `COc1cc(OC)cc(-c2c(-c3ccccc3)nnc(C)c2-c2c(F)cc(F)cc2F)c1` [Compound 35, 4-(3,5-dimethoxyphenyl)-6-methyl-3-phenyl-5-(2,4,6-trifluorophenyl)pyridazine], the pest or weed control at 40 ppm in the assay with Erysiphe graminis (Blumeria graminis, 192 h, 40 ppm (marked *)) came to 90%; in assay [1] (192 h, 40 ppm (marked *)), 100%; with Septoria tritici (Zymoseptoria tritici, 504 h, 40 ppm (marked *)), 100%. Further, the figures for the pest or weed control at 200 ppm in the assay on Septoria nodorum (200 ppm), in the assay with Alternaria solani (200 ppm) and in the assay with Botrytis cinerea (200 ppm) were 95%, 99% and 99%, respectively.

With `Cc1nnc(-c2ccccc2F)c(-c2cncc(F)c2)c1-c1c(F)cc(F)cc1F` [Compound 41], in the assay on Erysiphe graminis (40 ppm (marked *)), the “Test A rating” value is recorded as 97* %. For the same compound, the “Test B rating” value in assay [1] (40 ppm (marked *)) was 100* %. In addition, the “Test C rating” value with Septoria tritici (40 ppm (marked *)) is reported as 100* %. The “Test D rating” value in the assay with Septoria nodorum (40 ppm (marked *)) is 98* %. Besides, the “Test E rating” value with Alternaria solani (40 ppm (marked *)) is on record as 98* %. Further, the “Test F rating” value in the assay on Botrytis cinerea (40 ppm (marked *)) is 100* %.
